{
  "source": "paper PMC7725003",
  "about": "“Systematically Studying the Optimal Amino Acid Distribution Patterns of the Amphiphilic Structure by Using the Ultrashort Amphiphiles” (Frontiers in Microbiology, 2020)",
  "key": {"P. aeruginosa ATCC 27853": {"tested_on": "P. aeruginosa ATCC 27853", "type": "cell-based, Pseudomonas aeruginosa", "conditions": "after 30 passages in sub-MBC concentration", "method": "Finally, P. aeruginosa ATCC 27853 was used as the model of the drug resistance study. […] The MBC values of the drugs against every two passage’s cells were tested. As a control, MBCs were also tested using cells that were serially passaged in fresh MHB without drugs. The assay was conducted independently in triplicate with three biological replicates."}, "B. subtilis 63501": {"tested_on": "B. subtilis 63501", "type": "cell-based, Bacillus subtilis", "conditions": "63501, 24 h", "summary_of_the_method": "(§1)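 Absorbance at 492 nm after 24 h at 37°C defined the MIC as the lowest peptide level inhibiting 95% of growth. Inoculum was 0.5–1 × 10^6 CFU mL^–1 mid-log cells in MHB; peptides were diluted in 0.2% BSA.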"}, "S. epidermidis 12228": {"tested_on": "S. epidermidis 12228", "type": "cell-based, Staphylococcus epidermidis", "conditions": "12228, 24 h", "summary_of_the_method": "as §1"}, "E. coli K88": {"tested_on": "E. coli K88", "summary_of_the_method": "(§2)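 Peptides were serially diluted in 0.2% BSA and added to mid-logarithmic cells diluted in MHB to 0.5–1 × 10^6 CFU mL^–1. Assays followed an adapted NCCLS protocol.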"}, "E. coli K99": {"tested_on": "E. coli K99", "summary_of_the_method": "as §2"}, "[1]": {"tested_on": "Listeria monocytogenes CGMCC 1.1075", "type": "cell-based", "conditions": "CGMCC 1.1075, 24 h", "summary_of_the_method": "as §1"}, "S. aureus 29213 [2]": {"tested_on": "S. aureus 29213", "experiment": "Salt sensitivity assay (MIC)", "type": "cell-based, Staphylococcus aureus", "summary_of_the_method": "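Physiological salts (150 mM NaCl, 4.5 mM KCl, 6 μM NH4Cl, 8 μM ZnCl2, 1 mM MgCl2, 2mM CaCl2, 4 μM FeCl3) added to MHB. Bacteria at 0.5–1 × 10^6 CFU/mL exposed to serially diluted peptides for 24 h at 37°C. MIC read as lowest peptide concentration giving 95% growth inhibition by absorbance at 492 nm.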"}, "[3]": {"tested_on": "all of the tested bacterial strains", "experiment": "Geometric mean of MICs, all tested bacterial strains", "type": "cell-based", "summary_of_the_method": "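Per strain, MIC came from absorbance at 492 nm after 24 h at 37°C (≥95% inhibition), using mid-log inoculum of 0.5–1 × 10^6 CFU mL^–1 in MHB and peptide diluted in 0.2% BSA. MBC (>99.9% killed) came from overnight agar plating, and values are geometric means across strains.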"}, "Gram-negative bacteria [4]": {"tested_on": "Gram-negative bacteria", "summary_of_the_method": "(§3)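 MIC is the lowest peptide concentration giving 95% growth inhibition, read at 492 nm after 24 h incubation at 37°C. Peptides were serially diluted in 0.2% BSA and added to mid-logarithmic cells at 0.5–1 × 10^6 CFU mL^–1 in MHB, following a modified NCCLS method, with more than 3 repeats.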"}, "Gram-positive bacteria [5]": {"tested_on": "Gram-positive bacteria", "summary_of_the_method": "as §3"}, "Gram-negative bacteria [6]": {"tested_on": "Gram-negative bacteria", "conditions": "geometric mean of MBCs, 9 Gram-negative strains (Table 2)"}, "E. faecalis 29212": {"tested_on": "E. faecalis 29212", "type": "cell-based, Enterococcus faecalis", "conditions": "29212, 24 h", "summary_of_the_method": "as §1"}, "S. pullorum 7913": {"tested_on": "S. pullorum 7913", "type": "cell-based, Salmonella pullorum", "conditions": "7913, 24 h", "summary_of_the_method": "as §1"}, "Gram-positive bacteria [7]": {"tested_on": "Gram-positive bacteria", "conditions": "geometric mean of MBCs, 7 Gram-positive strains (Table 2)"}, "E. coli O78": {"tested_on": "E. coli O78", "type": "cell-based, Escherichia coli", "conditions": "O78, 24 h", "summary_of_the_method": "as §1"}, "E. coli UB1005": {"tested_on": "E. coli UB1005", "type": "cell-based, Escherichia coli", "conditions": "UB1005, 24 h", "summary_of_the_method": "as §1"}, "E. coli 25922": {"tested_on": "E. coli 25922", "type": "cell-based, Escherichia coli", "conditions": "25922, 24 h", "summary_of_the_method": "as §1"}, "MRSA 43300": {"tested_on": "MRSA 43300", "type": "cell-based, methicillin-resistant S. aureus", "conditions": "43300, 24 h", "summary_of_the_method": "as §1"}, "P. aeruginosa 27853": {"tested_on": "P. aeruginosa 27853", "type": "cell-based, Pseudomonas aeruginosa", "conditions": "27853, 24 h", "summary_of_the_method": "as §1"}, "E. coli ATCC 25922": {"tested_on": "E. coli ATCC 25922", "experiment": "Salt sensitivity assay (MIC)", "type": "cell-based, Escherichia coli", "summary_of_the_method": "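Peptides diluted serially in 0.2% BSA solution were combined at identical volumes with mid-logarithmic E. coli ATCC 25922 in MHB (0.5–1 × 10^6 CFU mL^–1) in 96-well plates, with or without a physiological salt. Plates were incubated for 24 h at 37°C. MIC was the lowest concentration inhibiting 95% of growth, measured as absorbance at 492 nm on a microplate reader.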"}, "S. aureus 25923": {"tested_on": "S. aureus 25923", "type": "cell-based, Staphylococcus aureus", "conditions": "25923, 24 h", "summary_of_the_method": "as §1"}, "S. aureus 29213 [8]": {"tested_on": "S. aureus 29213", "type": "cell-based, Staphylococcus aureus", "conditions": "29213, 24 h", "summary_of_the_method": "as §1"}, "S. typhimurium 14028": {"tested_on": "S. typhimurium 14028", "type": "cell-based, Salmonella typhimurium", "conditions": "14028, 24 h", "summary_of_the_method": "as §1"}, "S. typhimurium 7731": {"tested_on": "S. typhimurium 7731", "type": "cell-based, Salmonella typhimurium", "conditions": "7731, 24 h", "summary_of_the_method": "as §1"}, "[9]": {"conditions": "MHB, 24 h 37°C, 95% growth inhibition"}, "[10]": {"conditions": "value in brackets, >99.9% of cells killed"}, "[11]": {"conditions": "therapeutic index TI = MHC/GM MIC"}},
  "note": "Where no end group is shown, it is not given here.",
  "data": [
    {"molecule": "CC(C)(O/N=C(\\C(=O)N[C@@H]1C(=O)N2C(C(=O)[O-])=C(C[n+]3ccccc3)CS[C@H]12)c1csc(N)n1)C(=O)O", "note": "[ceftazidime, reference compound]", "values": [
      {"measurement": "increase of MBC value", "setting": "P. aeruginosa ATCC 27853", "value": 64, "unit": "fold"}
    ]},
    {"molecule": "RRLLLRLRL-NH2 [L8]", "values": [
      {"measurement": "MBC", "setting": "B. subtilis 63501", "value": 8, "unit": "µM"},
      {"measurement": "MIC", "setting": "B. subtilis 63501", "value": 4, "unit": "µM"},
      {"measurement": "MBC", "setting": "S. epidermidis 12228", "value": 64, "unit": "µM"},
      {"measurement": "MIC", "setting": "S. epidermidis 12228", "value": 32, "unit": "µM"},
      {"measurement": "MIC", "setting": "E. coli K88; [9]", "value": 4, "unit": "µM"},
      {"measurement": "MBC", "setting": "E. coli K88; [10]", "value": 8, "unit": "µM"},
      {"measurement": "MIC", "setting": "E. coli K99; [9]", "value": 16, "unit": "µM"},
      {"measurement": "MBC", "setting": "E. coli K99; [10]", "value": 32, "unit": "µM"},
      {"measurement": "MBC", "setting": "[1]", "value": 8, "unit": "µM"},
      {"measurement": "MIC", "setting": "[1]", "value": 4, "unit": "µM"},
      {"measurement": "MIC, FeCl3", "setting": "S. aureus 29213 [2]; 4 μM FeCl3", "value": 32, "unit": "µM"},
      {"measurement": "MIC, NH4Cl", "setting": "S. aureus 29213 [2]; 6 μM NH4Cl", "value": 32, "unit": "µM"},
      {"measurement": "MIC, ZnCl2", "setting": "S. aureus 29213 [2]; 8 μM ZnCl2", "value": 32, "unit": "µM"},
      {"measurement": "MIC, MgCl2", "setting": "S. aureus 29213 [2]; 1 mM MgCl2", "value": 64, "unit": "µM"},
      {"measurement": "MIC, CaCl2", "setting": "S. aureus 29213 [2]; 2 mM CaCl2", "value": "> 64", "unit": "µM"},
      {"measurement": "MIC, KCl", "setting": "S. aureus 29213 [2]; 4.5 mM KCl", "value": 64, "unit": "µM"},
      {"measurement": "GM, All", "setting": "[3]; geometric mean of MICs across all tested strains", "value": 19.87, "unit": "µM"},
      {"measurement": "TI, All", "setting": "[3]; [11]", "value": 12.88},
      {"measurement": "GM MIC", "setting": "Gram-negative bacteria [4]; geometric mean of MICs, 9 Gram-negative strains (Table 2)", "value": 17.28, "unit": "µM"},
      {"measurement": "TI, Gram-negative bacteria", "setting": "Gram-negative bacteria [4]; [11]", "value": 14.81},
      {"measurement": "GM MIC", "setting": "Gram-positive bacteria [5]; geometric mean of MICs, 7 Gram-positive strains (Table 2)", "value": 23.78, "unit": "µM"},
      {"measurement": "TI, Gram-positive bacteria", "setting": "Gram-positive bacteria [5]; [11]", "value": 10.77},
      {"measurement": "GM MBC", "setting": "Gram-negative bacteria [6]", "value": 32.00, "unit": "µM"},
      {"measurement": "MIC", "setting": "E. faecalis 29212", "value": "> 64", "unit": "µM"},
      {"measurement": "MBC", "setting": "S. pullorum 7913", "value": 16, "unit": "µM"},
      {"measurement": "MIC", "setting": "S. pullorum 7913", "value": 8, "unit": "µM"},
      {"measurement": "GM MBC", "setting": "Gram-positive bacteria [7]", "value": 43.07, "unit": "µM"},
      {"measurement": "MBC", "setting": "E. coli O78", "value": 16, "unit": "µM"},
      {"measurement": "MIC", "setting": "E. coli O78", "value": 8, "unit": "µM"},
      {"measurement": "MBC", "setting": "E. coli UB1005", "value": 64, "unit": "µM"},
      {"measurement": "MIC", "setting": "E. coli UB1005", "value": 32, "unit": "µM"},
      {"measurement": "MBC", "setting": "E. coli 25922", "value": 32, "unit": "µM"},
      {"measurement": "MIC", "setting": "E. coli 25922", "value": 16, "unit": "µM"},
      {"measurement": "MBC", "setting": "MRSA 43300", "value": 64, "unit": "µM"},
      {"measurement": "MIC", "setting": "MRSA 43300", "value": 32, "unit": "µM"},
      {"measurement": "MBC", "setting": "P. aeruginosa 27853", "value": 128, "unit": "µM"},
      {"measurement": "MIC", "setting": "P. aeruginosa 27853", "value": 64, "unit": "µM"},
      {"measurement": "MIC, FeCl3", "setting": "E. coli ATCC 25922; 4 μM FeCl3", "value": 16, "unit": "µM"},
      {"measurement": "MIC, NH4Cl", "setting": "E. coli ATCC 25922; 6 μM NH4Cl", "value": 8, "unit": "µM"},
      {"measurement": "MIC, ZnCl2", "setting": "E. coli ATCC 25922; 8 μM ZnCl2", "value": 8, "unit": "µM"},
      {"measurement": "MIC, MgCl2", "setting": "E. coli ATCC 25922; 1 mM MgCl2", "value": 32, "unit": "µM"},
      {"measurement": "MIC, CaCl2", "setting": "E. coli ATCC 25922; 2 mM CaCl2", "value": "> 64", "unit": "µM"},
      {"measurement": "MIC, KCl", "setting": "E. coli ATCC 25922; 4.5 mM KCl", "value": 32, "unit": "µM"},
      {"measurement": "MIC, NaCl", "setting": "E. coli ATCC 25922; 150 mM NaCl", "value": 64, "unit": "µM"},
      {"measurement": "MIC, Control", "setting": "E. coli ATCC 25922; no added salt, three independent assays", "value": 16, "unit": "µM"},
      {"measurement": "MBC", "setting": "S. aureus 25923", "value": 128, "unit": "µM"},
      {"measurement": "MIC", "setting": "S. aureus 25923", "value": 64, "unit": "µM"},
      {"measurement": "MBC", "setting": "S. aureus 29213 [8]", "value": 64, "unit": "µM"},
      {"measurement": "MIC", "setting": "S. aureus 29213 [8]", "value": 32, "unit": "µM"},
      {"measurement": "MBC", "setting": "S. typhimurium 14028", "value": 64, "unit": "µM"},
      {"measurement": "MIC", "setting": "S. typhimurium 14028", "value": 32, "unit": "µM"},
      {"measurement": "MBC", "setting": "S. typhimurium 7731", "value": 64, "unit": "µM"},
      {"measurement": "MIC", "setting": "S. typhimurium 7731", "value": 32, "unit": "µM"}
    ]}
  ]
}
